Measured values published in patent US10039740B2, “Therapeutic combinations of sesquiterpenes and flavonoids” (Primus Pharmaceuticals, Inc., priority 2015, dated 2018).

What was measured:
RAW267.4 cells [1] = experiment: Cell proliferation of RAW267.4 cells (cell counting); type: cell-based, mouse; details: cultured 3 days; for proliferation of RAW267.4 cells: p<0.001 vs control; for effect on RAW267.4 cells (proliferation): 1, 10, 50, 100, and 200 μg/ml, FIG. 4, FIG. 5
Description: Various experiments were conducted to determine effects of various active ingredients on RAW 267.4 in vitro. RAW267.4 cells refer to a mouse macrophage that produces various inflammatory cytokines including TNF-α and IL-1β. RAW267.4 cells may be prepared as 1×10^5/ml per well. These cells were cultured using a 24-well plate in DMEM containing 10% FBS and 1% P/S for 1, 2, 3 or 7 days in a water-saturated atmosphere containing 5% CO2 and 95% air at 37° C. RAW267.4 cells were cultured DMEM containing 10% FBS and 1% P/S in the presence of β-caryophyllene [1 (5 μM), 10, 50, 100 or 200 μg/ml of medium], baicalin [1 (2.24 μM), 10, 50, 100 or 200 μg/ml of medium], (+)-catechin [1 (3.45 μM), 10, 50, 100 or 200 μg/ml of medium], curcumin [1 (2.72 μM), 10, 50, 100 or 200 μg/ml of medium], or (+)-aromatic turmerone [1 (4.62 μM), 5, 10, 25 or 50 μg/ml of medium] for 3 days. After culture, cells were detached from each culture dish and counted. After trypsinization of each culture dish using 0.2% […] plus 0.02% EDTA in Ca^2+/Mg^2+-free PBS for 2 min at 37° C., detached cells from the dish were collected after centrifugation. Cells were resuspended in PBS solution and stained with eosin. Cell numbers were counted under a microscope using a Hemocytometer plate. Each dish was counted twice, and an average of two counts was calculated. Cell number was shown as number per well of plate. Statistical significance was determined using GraphPad InStat version 3 for Windows XP (GraphPad Software Inc. La Jolla, Calif.). Multiple comparisons were performed by one-way analysis of variance (ANOVA) with Tukey-Kramer multiple comparisons post test for parametric data as indicated. P<0.05 was considered statistically significant. The cells were cultured for 3 days in the presence of one or more various compounds to determine their anti-inflammatory effects.

RAW267.4 cells [2] = experiment: Cell death of RAW267.4 cells (cell number after confluence); type: cell-based, mouse; details: for death of RAW267.4 cells in vitro: conclusion from the cell death experiments
Description: RAW267.4 cells (1×10^5/ml per well) were cultured using a 24-well plate in DMEM containing 10% FBS and 1% P/S for 3 days until reaching confluence, and then the cells were cultured another for 2 days in the presence or absence of β-caryophyllene (1 or 10 μg/ml of medium) and/or baicalin or (+)-catechin (1 or 10 μg/ml of medium). After culture, cells were detached from each culture dish. After trypsinization of each culture dish using 0.2% […] plus 0.02% EDTA in Ca^2+/Mg^2+-free PBS for 2 min at 37° C., detached cells from the dish were collected after centrifugation. Cells were resuspended in PBS solution and stained with eosin. Cell numbers were counted under a microscope using a Hemocytometer plate. Each dish was counted twice, and an average of two counts was calculated. Cell number was shown as number per well of plate. Statistical significance was determined using GraphPad InStat version 3 for Windows XP (GraphPad Software Inc. La Jolla, Calif.). Multiple comparisons were performed by one-way analysis of variance (ANOVA) with Tukey-Kramer multiple comparisons post test for parametric data as indicated. P<0.05 was considered statistically significant.

| Compound | effect on RAW267.4 cells (proliferation) (RAW267.4 cells [1]) | death of RAW267.4 cells in vitro (RAW267.4 cells [2]) | further results |
| --- | --- | --- | --- |
| CC(C)=CC(=O)C[C@H](C)c1ccc(C)cc1 [(+)-aromatic turmerone, reference compound] |  |  | proliferation of RAW267.4 cells (RAW267.4 cells [1]; 25 and 50 μg/ml, FIG. 3): significantly increased |
| Oc1cc(O)c2c(c1)O[C@H](c1ccc(O)c(O)c1)[C@@H](O)C2 [(+)-catechin] | did not result in a significant effect | do not have significant effects |  |
| O=C(O)[C@H]1O[C@@H](Oc2cc3oc(-c4ccccc4)cc(=O)c3c(O)c2O)[C@H](O)[C@@H](O)[C@@H]1O [baicalin] | did not result in a significant effect | do not have significant effects |  |
| COc1cc(/C=C/C(=O)CC(=O)/C=C/c2ccc(O)c(OC)c2)ccc1O [curcumin, reference compound] |  |  | proliferation of RAW267.4 cells (RAW267.4 cells [1]; 100 and 200 μg/ml, FIG. 2): suppressed |
| C=C1CC/C=C(\C)CC[C@@H]2[C@@H]1CC2(C)C [β-caryophyllene] |  | do not have significant effects | suppressive effect on cell proliferation (RAW267.4 cells [1]; 1 or 10 μg/ml of each compound, FIG. 6, 7, 8, 10): did not result any significant suppressive effect; proliferation of RAW267.4 cells (RAW267.4 cells [1]; 50, 100, and 200 μg/ml of medium, FIG. 1): suppressed; number of RAW267.4 cells (cell death) (RAW267.4 cells [2]; 3 days without chemicals, then 2 days with compound(s) at about 1 or 10 μg/ml of medium, FIG. 13): did not induce a significant decrease |
